Test system: MV-4-11 cells
Assay: Gene expression microarray analysis (Affymetrix PrimeView) and GSEA
Type: cell-based, human
Set-up: RFU PODN (11730768_x_at) / Fold change /veh PODN (11730768_x_at) / RFU LINC00158 (11744669_a_at) / Fold change /veh LINC00158 (11744669_a_at) / RFU DUSP10 (11751237_a_at) / Fold change /veh DUSP10 (11751237_a_at) / RFU ID3 (11757404_x_at) / Fold change /veh ID3 (11757404_x_at) / RFU PLEKHG5 (11737974_s_at) / Fold change /veh PLEKHG5 (11737974_s_at) / RFU LRRC4B (11730491_at) / Fold change /veh LRRC4B (11730491_at) / RFU GIMAP4 (11747438_a_at) / Fold change /veh GIMAP4 (11747438_a_at) / RFU KRT8 (11758183_x_at) / Fold change /veh KRT8 (11758183_x_at) / RFU CNN1 (11734310_a_at) / Fold change /veh CNN1 (11734310_a_at) / RFU VPS37D (11726825_at) / Fold change /veh VPS37D (11726825_at) / RFU C10orf10 (11716522_x_at) / Fold change /veh C10orf10 (11716522_x_at) / RFU KIR2DL2 /// KIR2DL4 /// KIR2DL5A /// KIR2DL5B /// KIR2DS1 /// KIR2DS2 /// KIR2DS3 /// KIR2DS4 /// KIR3DL3 /// KIR3DL3 /// KIR3DS1 (11738374_at) / Fold change /veh KIR2DL2 /// KIR2DL4 /// KIR2DL5A /// KIR2DL5B /// KIR2DS1 /// KIR2DS2 /// KIR2DS3 /// KIR2DS4 /// KIR3DL3 /// KIR3DL3 /// KIR3DS1 (11738374_at) / RFU C1QL1 (11718748_at) / Fold change /veh C1QL1 (11718748_at) / RFU TMPRSS4 (11747572_a_at) / Fold change /veh TMPRSS4 (11747572_a_at) / RFU HAMP (11756126_x_at) / Fold change /veh HAMP (11756126_x_at) / RFU RNFT2 (11725882_a_at) / Fold change /veh RNFT2 (11725882_a_at) / RFU NR4A2 (11747474_a_at) / Fold change /veh NR4A2 (11747474_a_at) / RFU ABCC12 (11746883_a_at) / Fold change /veh ABCC12 (11746883_a_at) / RFU TMEM136 (11760407_x_at) / Fold change /veh TMEM136 (11760407_x_at) / RFU CLDN22 /// WWC2 (11732394_at) / Fold change /veh CLDN22 /// WWC2 (11732394_at) / RFU HLA-DPB1 (11760878_x_at) / Fold change /veh HLA-DPB1 (11760878_x_at) / RFU SPINT1 (11716480_a_at) / Fold change /veh SPINT1 (11716480_a_at) / RFU GAP43 (11754022_s_at) / Fold change /veh GAP43 (11754022_s_at) / RFU A4GNT (11735810_at) / Fold change /veh A4GNT (11735810_at) / RFU PRB3 (11715151_x_at) / Fold change /veh PRB3 (11715151_x_at) / RFU TUBB4B (11761932_at) / Fold change /veh TUBB4B (11761932_at) / RFU CAPN14 (11732068_a_at) / Fold change /veh CAPN14 (11732068_a_at) / RFU TMCC2 (11721928_a_at) / Fold change /veh TMCC2 (11721928_a_at) / RFU IRGQ (11745062_a_at) / Fold change /veh IRGQ (11745062_a_at) / RFU FAM174B (11720279_a_at) / Fold change /veh FAM174B (11720279_a_at) / RFU TMPRSS4 (11748680_a_at) / Fold change /veh TMPRSS4 (11748680_a_at) / RFU FAM212B (11763350_a_at) / Fold change /veh FAM212B (11763350_a_at) / RFU PLEKHG5 (11743358_a_at) / Fold change /veh PLEKHG5 (11743358_a_at) / RFU ZSCAN30 (11745921_a_at) / Fold change /veh ZSCAN30 (11745921_a_at) / RFU CMKLR1 (11741424_a_at) / Fold change /veh CMKLR1 (11741424_a_at) / RFU LOC101060620 /// MAPK8IP1 (11723275_at) / Fold change /veh LOC101060620 /// MAPK8IP1 (11723275_at) / RFU SPTSSB (11747773_x_at) / Fold change /veh SPTSSB (11747773_x_at) / RFU PRSS12 (11739890_at) / Fold change /veh PRSS12 (11739890_at) / RFU BIN1 (11741810_x_at) / Fold change /veh BIN1 (11741810_x_at) / RFU WNT11 (11732464_a_at) / Fold change /veh WNT11 (11732464_a_at) / RFU C10orf10 (11716521_a_at) / Fold change /veh C10orf10 (11716521_a_at) / RFU C5orf56 (11738089_at) / Fold change /veh C5orf56 (11738089_at) / RFU CYB561 (11721691_x_at) / Fold change /veh CYB561 (11721691_x_at) / RFU ANKRD19P (11752326_a_at) / Fold change /veh ANKRD19P (11752326_a_at) / RFU OR2T12 /// OR2T33 /// OR2T8 (11738714_s_at) / Fold change /veh OR2T12 /// OR2T33 /// OR2T8 (11738714_s_at) / RFU VCAN (11748164_a_at) / Fold change /veh VCAN (11748164_a_at) / RFU JSRP1 (11732532_at) / Fold change /veh JSRP1 (11732532_at) / RFU KRTAP10-11 (11738290_x_at) / Fold change /veh KRTAP10-11 (11738290_x_at) / RFU MYO3A (11730013_a_at) / Fold change /veh MYO3A (11730013_a_at) / RFU EBF3 (11725865_a_at) / Fold change /veh EBF3 (11725865_a_at) / RFU CAMK2N1 (11719241_x_at) / Fold change /veh CAMK2N1 (11719241_x_at) / RFU C5orf56 (11738088_a_at) / Fold change /veh C5orf56 (11738088_a_at) / RFU OLFML3 (11715873_a_at) / Fold change /veh OLFML3 (11715873_a_at) / RFU LOC100653217 /// NTM (11731650_a_at) / Fold change /veh LOC100653217 /// NTM (11731650_a_at) / RFU MAPK11 (11762145_a_at) / Fold change /veh MAPK11 (11762145_a_at) / RFU FIZ1 (11724087_x_at) / Fold change /veh FIZ1 (11724087_x_at) / RFU OASL (11726364_x_at) / Fold change /veh OASL (11726364_x_at) / RFU SOX15 (11748057_x_at) / Fold change /veh SOX15 (11748057_x_at) / RFU CD79A (11719716_a_at) / Fold change /veh CD79A (11719716_a_at) / RFU HIST1H1D (11736915_at) / Fold change /veh HIST1H1D (11736915_at) / RFU CASKIN2 (11723855_a_at) / Fold change /veh CASKIN2 (11723855_a_at) / RFU LOC730098 (11760151_x_at) / Fold change /veh LOC730098 (11760151_x_at) / RFU OR4N2 (11742367_at) / Fold change /veh OR4N2 (11742367_at) / RFU PRRT2 (11749266_a_at) / Fold change /veh PRRT2 (11749266_a_at) / RFU SNX32 (11753110_a_at) / Fold change /veh SNX32 (11753110_a_at) / RFU CDHR5 (11726645_a_at) / Fold change /veh CDHR5 (11726645_a_at) / RFU RCAN1 (11760418_a_at) / Fold change /veh RCAN1 (11760418_a_at) / RFU FAM167A (11723789_a_at) / Fold change /veh FAM167A (11723789_a_at) / RFU FAM26E (11764081_at) / Fold change /veh FAM26E (11764081_at) / RFU ISYNA1 (11749810_s_at) / Fold change /veh ISYNA1 (11749810_s_at) / RFU ACY1 (11761880_at) / Fold change /veh ACY1 (11761880_at) / RFU 11764098_at / Fold change /veh 11764098_at / RFU SAMD14 (11745864_x_at) / Fold change /veh SAMD14 (11745864_x_at) / RFU NPB (11741838_a_at) / Fold change /veh NPB (11741838_a_at) / RFU TMPRSS6 (11731388_a_at) / Fold change /veh TMPRSS6 (11731388_a_at) / RFU KRTAP10-2 (11738614_at) / Fold change /veh KRTAP10-2 (11738614_at) / RFU ARHGAP8 /// PRR5-ARHGAP8 (11727945_x_at) / Fold change /veh ARHGAP8 /// PRR5-ARHGAP8 (11727945_x_at) / RFU KRTAP5-7 /// NADSYN1 (11734609_at) / Fold change /veh KRTAP5-7 /// NADSYN1 (11734609_at) / RFU RASL12 (11751679_a_at) / Fold change /veh RASL12 (11751679_a_at) / RFU CDKN2B (11736163_a_at) / Fold change /veh CDKN2B (11736163_a_at) / RFU PRF1 (11729649_at) / Fold change /veh PRF1 (11729649_at) / RFU, ZNF638 /// ZNF638-IT1 / Fold change vs veh, ZNF638 /// ZNF638-IT1 / RFU, PANK3 / Fold change vs veh, PANK3 / RFU, SH3YL1 / Fold change vs veh, SH3YL1 / RFU, ZEB2 / Fold change vs veh, ZEB2 / RFU, NRIP1 / Fold change vs veh, NRIP1 / RFU, PTTG1IP / Fold change vs veh, PTTG1IP / RFU, CAPN2 / Fold change vs veh, CAPN2 / RFU, MED14 / Fold change vs veh, MED14 / RFU, SNORA58 / Fold change vs veh, SNORA58 / RFU, C1orf63 / Fold change vs veh, C1orf63 / RFU, LRRFIP1 / Fold change vs veh, LRRFIP1 / RFU, NDUFAF7 / Fold change vs veh, NDUFAF7 / RFU, SLC12A2 / Fold change vs veh, SLC12A2 / RFU, IBTK / Fold change vs veh, IBTK / RFU, ESF1 / Fold change vs veh, ESF1 / Fold change vs veh, TMEM50B / RFU, TAOK1 / Fold change vs veh, TAOK1 / RFU, ACBD3 / Fold change vs veh, ACBD3 / RFU, TMA16 / Fold change vs veh, TMA16 / RFU, RWDD3 / Fold change vs veh, RWDD3 / RFU, BCAT1 / Fold change vs veh, BCAT1 / RFU, EDEM3 / Fold change vs veh, EDEM3 / RFU, TMEM33 / Fold change vs veh, TMEM33 / RFU, WDR75 / Fold change vs veh, WDR75 / RFU, AHCTF1 / Fold change vs veh, AHCTF1 / RFU, TFRC / Fold change vs veh, TFRC / RFU, ZDHHC17 / Fold change vs veh, ZDHHC17 / RFU, NOM1 / Fold change vs veh, NOM1 / RFU, ARL8B / Fold change vs veh, ARL8B / RFU, ZBTB11 / Fold change vs veh, ZBTB11 / RFU, TAMM41 / Fold change vs veh, TAMM41 / RFU, KIAA1704 /// LOC100996395 / Fold change vs veh, KIAA1704 /// LOC100996395 / RFU, ING1 / Fold change vs veh, ING1 / RFU, TRMT61B / Fold change vs veh, TRMT61B / RFU, FUBP3 / Fold change vs veh, FUBP3 / RFU, TP53 / Fold change vs veh, TP53 / RFU, TNKS2 / Fold change vs veh, TNKS2 / RFU, ZFP14 / Fold change vs veh, ZFP14 / RFU, ACTR2 / Fold change vs veh, ACTR2 / RFU, PPP3R1 / Fold change vs veh, PPP3R1 / RFU, PIK3R1 / Fold change vs veh, PIK3R1 / RFU, HNRNPA1 / Fold change vs veh, HNRNPA1 / RFU, RNF170 / Fold change vs veh, RNF170 / RFU, ZNF28 / Fold change vs veh, ZNF28 / RFU, RNGTT / Fold change vs veh, RNGTT / RFU, OGT / Fold change vs veh, OGT / RFU, BRD1 / Fold change vs veh, BRD1 / RFU, MARS / Fold change vs veh, MARS / RFU, ZNF655 / Fold change vs veh, ZNF655 / RFU, FAHD1 / Fold change vs veh, FAHD1 / RFU, BDP1 / Fold change vs veh, BDP1 / RFU, LRRCC1 / Fold change vs veh, LRRCC1 / RFU, ARID1A / Fold change vs veh, ARID1A / RFU, ZNF146 / Fold change vs veh, ZNF146 / RFU, ZNF330 / Fold change vs veh, ZNF330 / RFU, GPN3 / Fold change vs veh, GPN3 / RFU, C9orf123 / Fold change vs veh, C9orf123 / RFU, N4BP2L2 / Fold change vs veh, N4BP2L2 / RFU, ARFIP1 / Fold change vs veh, ARFIP1 / RFU, FAM179B / Fold change vs veh, FAM179B / RFU, BCL10 / Fold change vs veh, BCL10 / RFU, UHRF1BP1L / Fold change vs veh, UHRF1BP1L / RFU, BET1 / Fold change vs veh, BET1 / RFU, CNOT2 / Fold change vs veh, CNOT2 / RFU, ZNF268 / Fold change vs veh, ZNF268 / Fold change vs veh, ZNF507 / RFU, DGCR2 / Fold change vs veh, DGCR2 / RFU, WDSUB1 / Fold change vs veh, WDSUB1 / Fold change vs veh, HSP90B1 /// MIR3652 / RFU, ADSS / Fold change vs veh, ADSS / RFU, GK / Fold change vs veh, GK / RFU, ZNF148 / Fold change vs veh, ZNF148 / RFU, TAF9 / Fold change vs veh, TAF9 / RFU, SLC1A5 / Fold change vs veh, SLC1A5 / RFU, SLMO2 / Fold change vs veh, SLMO2 / RFU, ABCC4 / Fold change vs veh, ABCC4 / RFU, LOC101060439 /// RAP1B / Fold change vs veh, LOC101060439 /// RAP1B / RFU, RFX7 / Fold change vs veh, RFX7 / RFU, GTPBP10 / Fold change vs veh, GTPBP10 / RFU, CNEP1R1 / Fold change vs veh, CNEP1R1 / RFU, BIVM-ERCC5 /// ERCC5 / Fold change vs veh, BIVM-ERCC5 /// ERCC5 / RFU, ILF3 / Fold change vs veh, ILF3 / RFU 11762660_at / Fold change /veh 11762660_at / RFU VCAN (11757783_s_at) / Fold change /veh VCAN (11757783_s_at) / RFU DDX43 (11728927_at) / Fold change /veh DDX43 (11728927_at) / RFU KRT8 (11758188_x_at) / Fold change /veh KRT8 (11758188_x_at) / RFU NKD1 (11759106_at) / Fold change /veh NKD1 (11759106_at) / RFU SRD5A1 (11742802_a_at) / Fold change /veh SRD5A1 (11742802_a_at) / RFU TPSAB1 /// TPSB2 (11721975_s_at) / Fold change /veh TPSAB1 /// TPSB2 (11721975_s_at) / RFU GSTM3 (11746129_a_at) / Fold change /veh GSTM3 (11746129_a_at) / RFU IL23R (11737362_x_at) / Fold change /veh IL23R (11737362_x_at) / RFU TMEM51 (11727254_a_at) / Fold change /veh TMEM51 (11727254_a_at) / RFU PIWIL2 (11732686_x_at) / Fold change /veh PIWIL2 (11732686_x_at) / RFU ORM1 (11744905_x_at) / Fold change /veh ORM1 (11744905_x_at) / RFU CCDC152 (11743942_at) / Fold change /veh CCDC152 (11743942_at) / RFU ECM1 (11717891_a_at) / Fold change /veh ECM1 (11717891_a_at) / RFU IL23R (11748794_a_at) / Fold change /veh IL23R (11748794_a_at) / RFU TNFAIP8L3 (11732012_x_at) / Fold change /veh TNFAIP8L3 (11732012_x_at) / RFU MBOAT4 (11741988_at) / Fold change /veh MBOAT4 (11741988_at) / RFU 11764193_at / Fold change /veh 11764193_at / RFU TMEM53 (11763286_at) / Fold change /veh TMEM53 (11763286_at) / RFU MAGEB2 (11727129_at) / Fold change /veh MAGEB2 (11727129_at) / RFU TMEM200A (11744735_a_at) / Fold change /veh TMEM200A (11744735_a_at) / RFU CCDC152 (11751479_a_at) / Fold change /veh CCDC152 (11751479_a_at) / RFU FAM211A (11726209_a_at) / Fold change /veh FAM211A (11726209_a_at) / RFU RGS16 (11746705_a_at) / Fold change /veh RGS16 (11746705_a_at) / RFU VCAN (11755009_s_at) / Fold change /veh VCAN (11755009_s_at) / RFU RHOB (11743442_s_at) / Fold change /veh RHOB (11743442_s_at) / RFU RGS16 (11720943_a_at) / Fold change /veh RGS16 (11720943_a_at) / RFU RGS16 (11720944_at) / Fold change /veh RGS16 (11720944_at) / RFU, VPS4B / Fold change vs veh, VPS4B / RFU, CREB1 / Fold change vs veh, CREB1 / RFU, DNAJC13 / Fold change vs veh, DNAJC13 / RFU, GNAQ / Fold change vs veh, GNAQ / RFU, CDK5R1 / Fold change vs veh, CDK5R1 / RFU, ZRANB3 / Fold change vs veh, ZRANB3 / RFU, CUL4A / Fold change vs veh, CUL4A / RFU, CCNY / Fold change vs veh, CCNY / RFU, UFL1 / Fold change vs veh, UFL1 / RFU, COG3 / Fold change vs veh, COG3 / RFU, DIAPH2 / Fold change vs veh, DIAPH2 / RFU, SKA2 / Fold change vs veh, SKA2 / RFU, AFF3 / Fold change vs veh, AFF3 / RFU, LMF1 / Fold change vs veh, LMF1 / RFU, IPO11 / Fold change vs veh, IPO11 / RFU, DFFB / Fold change vs veh, DFFB / RFU, FOXP1 / Fold change vs veh, FOXP1 / RFU, CARD8 / Fold change vs veh, CARD8 / RFU, STRN3 / Fold change vs veh, STRN3 / RFU, ADK / Fold change vs veh, ADK / RFU, RASSF2 / Fold change vs veh, RASSF2 / RFU, WIPF1 / Fold change vs veh, WIPF1 / RFU, LARP1B / Fold change vs veh, LARP1B / RFU, RASA1 / Fold change vs veh, RASA1 / RFU, RB1 / Fold change vs veh, RB1 / RFU, PPFIA1 / Fold change vs veh, PPFIA1 / RFU, MAT2A / Fold change vs veh, MAT2A / RFU, CCT5 / Fold change vs veh, CCT5 / RFU, WDR92 / Fold change vs veh, WDR92 / RFU, CUX1 / Fold change vs veh, CUX1 / RFU, TTC7A / Fold change vs veh, TTC7A / RFU, TMEM135 / Fold change vs veh, TMEM135 / RFU, DEPTOR / Fold change vs veh, DEPTOR / RFU, CPM / Fold change vs veh, CPM / RFU, DNAJB6 / Fold change vs veh, DNAJB6 / RFU, CACNA2D3 / Fold change vs veh, CACNA2D3 / RFU, DTX4 / Fold change vs veh, DTX4 / RFU, TFCP2 / Fold change vs veh, TFCP2 / RFU, GMCL1 /// GMCL1P1 / Fold change vs veh, GMCL1 /// GMCL1P1 / RFU, AEBP2 / Fold change vs veh, AEBP2 / RFU, SNHG1 /// SNORD22 /// SNORD25 /// SNORD26 /// SNORD27 /// SNORD28 /// SNORD29 /// SNORD31 / Fold change vs veh, SNHG1 /// SNORD22 /// SNORD25 /// SNORD26 /// SNORD27 /// SNORD28 /// SNORD29 /// SNORD31 / Fold change (Aza/veh), C12orf56 (ProbeSet 11735607_a_at) / Fold change (ACY-1035/veh), C12orf56 (ProbeSet 11735607_a_at) / Fold change (Aza/veh), FGFR1OP (ProbeSet 11751329_s_at) / Fold change (ACY-1035/veh), FGFR1OP (ProbeSet 11751329_s_at) / Fold change (Aza/veh), VPS36 (ProbeSet 11739960_a_at) / Fold change (ACY-1035/veh), VPS36 (ProbeSet 11739960_a_at) / RFU SYPL1 (11715823_x_at) / Fold change /veh SYPL1 (11715823_x_at) / RFU IGFBP7 (11715501_s_at) / Fold change /veh IGFBP7 (11715501_s_at) / RFU REEP3 (11722064_at) / Fold change /veh REEP3 (11722064_at) / RFU IGLL1 (11728026_x_at) / Fold change /veh IGLL1 (11728026_x_at): dose or concentration left out as unconfirmed
Conditions: MV-4-11 cells, 48 hours

For `Nc1ncn([C@@H]2O[C@H](CO)[C@@H](O)[C@H]2O)c(=O)n1` [azacitidine], the “Fold change /veh A4GNT (11735810_at)” value was 0.90.
